Values of other authors as cited in patent US20080096972A1, “COMPOUND FORMULATIONS OF 2-AMINO-1, 3-PROPANEDIOL COMPOUNDS” (priority 2004, published 2008).

Conditions: shortly after preparation or upon storage

For CCCCCCCCc1ccc(CCC(N)(CO)CO)cc1 [2-amino-2-[2-(4-octylphenyl)ethyl]-propane-1,3-diol], the “crystalline deposits in aqueous solutions” value is given as “crystalline deposits of this compound have been observed”.
